Assays:
PI3K-α = PI3K-α (Homo sapiens, UniProt P42336); assay: Assay c) PI3K cellular potency (phospho-Akt T308 ELISA in BT474 cells); assay type: cell-based; details: BT474 cells, 2 h, phospho-AKT T308; may be geometric mean of several tests; read-out: Assay c) PI3Kα Cell IC50
Description: Assay c): PI3K Cellular Potency
This assay was used to measure PI3K-α inhibition in cells. PDK1 was identified as the upstream activation loop kinase of protein kinase B (Akt 1), which is essential for the activation of PKB. Activation of the lipid kinase phosphoinositide 3 kinase (PI3K) is critical for the activation of PKB by PDK1.
Following ligand stimulation of receptor tyrosine kinases, PI3K is activated, which converts PIP2 to PIP3, which is bound by the PH domain of PDK1 resulting in recruitment of PDK1 to the plasma membrane where it phosphorylates AKT at Thr308 in the activation loop.
The aim of this cell-based mode of action assay is to identify compounds that inhibit PDK activity or recruitment of PDK1 to membrane by inhibiting PI3K activity. Phosphorylation of phospho-Akt (T308) in BT474c cells following treatment with compounds for 2 h is a direct measure of PDK1 and indirect measure of PI3K activity.
BT474 cells (human breast ductal carcinoma, ATCC HTB-20) were seeded into black 384 well plates (Costar, #3712) at a density of 5600 cells/well in DMEM containing 10% FBS and 1% glutamine and allowed to adhere overnight.
The following morning compounds in 100% DMSO were added to assay plates by acoustic dispensing. After a 2 h incubation at 37° C. and 5% CO2, the medium was aspirated and the cells were lysed with a buffer containing 25 mM Tris, 3 mM EDTA, 3 mM EGTA, 50 mM sodium fluoride, 2 mM Sodium orthovanadate, 0.27M sucrose, 10 mM β-glycerophosphate, 5 mM sodium pyrophosphate, 0.5% Triton X-100 and complete protease inhibitor cocktail tablets (Roche #04 693 116 001, used 1 tab per 50 ml lysis buffer).
After 20 minutes, the cell lysates were transferred into ELISA plates (Greiner #781077) which had been pre-coated with an anti total-AKT antibody in PBS buffer and non-specific binding was blocked with 1% BSA in PBS containing 0.05% Tween 20. Plates were incubated over night at 4° C. The next day the plates were washed with PBS buffer containing 0.05% Tween 20 and further incubated with a mouse monoclonal anti-phospho AKT T308 for 2 h. Plates were washed again as above before addition of a horse anti-mouse-HRP conjugated secondary antibody. Following a 2 h incubation at r.t., plates were washed and QuantaBlu substrate working solution (Thermo Scientific #15169, prepared according to provider's instructions) was added to each well. The developed fluorescent product was stopped after 60 minutes by addition of Stop solution to the wells. Plates were read using a Tecan Safire plate reader using 325 nm excitation and 420 nm emission wavelengths respectively. Except where specified, reagents contained in the Path Scan Phospho AKT (Thr308) sandwich ELISA kit from Cell Signalling (#7144) were used in this ELISA assay.

ATR kinase = biological target: T1, ATR kinase (Homo sapiens, UniProt Q13535); assay: Assay b) ATR cellular potency (pChk1 Ser345 in HT29 cells after 4NQO); assay type: cell-based; details: HT29 cells, 4NQO, pChk1 Ser345; may be geometric mean of several tests; read-out: Assay b) ATR Cell IC50
T1 construct: measuring a decrease in phosphorylation of Chk1 (Ser 345) in HT29 cells; endogenous in cells; host or cells: HT29 cells (ECACC #85061109)
T1 sequence (Q13535 whole entry): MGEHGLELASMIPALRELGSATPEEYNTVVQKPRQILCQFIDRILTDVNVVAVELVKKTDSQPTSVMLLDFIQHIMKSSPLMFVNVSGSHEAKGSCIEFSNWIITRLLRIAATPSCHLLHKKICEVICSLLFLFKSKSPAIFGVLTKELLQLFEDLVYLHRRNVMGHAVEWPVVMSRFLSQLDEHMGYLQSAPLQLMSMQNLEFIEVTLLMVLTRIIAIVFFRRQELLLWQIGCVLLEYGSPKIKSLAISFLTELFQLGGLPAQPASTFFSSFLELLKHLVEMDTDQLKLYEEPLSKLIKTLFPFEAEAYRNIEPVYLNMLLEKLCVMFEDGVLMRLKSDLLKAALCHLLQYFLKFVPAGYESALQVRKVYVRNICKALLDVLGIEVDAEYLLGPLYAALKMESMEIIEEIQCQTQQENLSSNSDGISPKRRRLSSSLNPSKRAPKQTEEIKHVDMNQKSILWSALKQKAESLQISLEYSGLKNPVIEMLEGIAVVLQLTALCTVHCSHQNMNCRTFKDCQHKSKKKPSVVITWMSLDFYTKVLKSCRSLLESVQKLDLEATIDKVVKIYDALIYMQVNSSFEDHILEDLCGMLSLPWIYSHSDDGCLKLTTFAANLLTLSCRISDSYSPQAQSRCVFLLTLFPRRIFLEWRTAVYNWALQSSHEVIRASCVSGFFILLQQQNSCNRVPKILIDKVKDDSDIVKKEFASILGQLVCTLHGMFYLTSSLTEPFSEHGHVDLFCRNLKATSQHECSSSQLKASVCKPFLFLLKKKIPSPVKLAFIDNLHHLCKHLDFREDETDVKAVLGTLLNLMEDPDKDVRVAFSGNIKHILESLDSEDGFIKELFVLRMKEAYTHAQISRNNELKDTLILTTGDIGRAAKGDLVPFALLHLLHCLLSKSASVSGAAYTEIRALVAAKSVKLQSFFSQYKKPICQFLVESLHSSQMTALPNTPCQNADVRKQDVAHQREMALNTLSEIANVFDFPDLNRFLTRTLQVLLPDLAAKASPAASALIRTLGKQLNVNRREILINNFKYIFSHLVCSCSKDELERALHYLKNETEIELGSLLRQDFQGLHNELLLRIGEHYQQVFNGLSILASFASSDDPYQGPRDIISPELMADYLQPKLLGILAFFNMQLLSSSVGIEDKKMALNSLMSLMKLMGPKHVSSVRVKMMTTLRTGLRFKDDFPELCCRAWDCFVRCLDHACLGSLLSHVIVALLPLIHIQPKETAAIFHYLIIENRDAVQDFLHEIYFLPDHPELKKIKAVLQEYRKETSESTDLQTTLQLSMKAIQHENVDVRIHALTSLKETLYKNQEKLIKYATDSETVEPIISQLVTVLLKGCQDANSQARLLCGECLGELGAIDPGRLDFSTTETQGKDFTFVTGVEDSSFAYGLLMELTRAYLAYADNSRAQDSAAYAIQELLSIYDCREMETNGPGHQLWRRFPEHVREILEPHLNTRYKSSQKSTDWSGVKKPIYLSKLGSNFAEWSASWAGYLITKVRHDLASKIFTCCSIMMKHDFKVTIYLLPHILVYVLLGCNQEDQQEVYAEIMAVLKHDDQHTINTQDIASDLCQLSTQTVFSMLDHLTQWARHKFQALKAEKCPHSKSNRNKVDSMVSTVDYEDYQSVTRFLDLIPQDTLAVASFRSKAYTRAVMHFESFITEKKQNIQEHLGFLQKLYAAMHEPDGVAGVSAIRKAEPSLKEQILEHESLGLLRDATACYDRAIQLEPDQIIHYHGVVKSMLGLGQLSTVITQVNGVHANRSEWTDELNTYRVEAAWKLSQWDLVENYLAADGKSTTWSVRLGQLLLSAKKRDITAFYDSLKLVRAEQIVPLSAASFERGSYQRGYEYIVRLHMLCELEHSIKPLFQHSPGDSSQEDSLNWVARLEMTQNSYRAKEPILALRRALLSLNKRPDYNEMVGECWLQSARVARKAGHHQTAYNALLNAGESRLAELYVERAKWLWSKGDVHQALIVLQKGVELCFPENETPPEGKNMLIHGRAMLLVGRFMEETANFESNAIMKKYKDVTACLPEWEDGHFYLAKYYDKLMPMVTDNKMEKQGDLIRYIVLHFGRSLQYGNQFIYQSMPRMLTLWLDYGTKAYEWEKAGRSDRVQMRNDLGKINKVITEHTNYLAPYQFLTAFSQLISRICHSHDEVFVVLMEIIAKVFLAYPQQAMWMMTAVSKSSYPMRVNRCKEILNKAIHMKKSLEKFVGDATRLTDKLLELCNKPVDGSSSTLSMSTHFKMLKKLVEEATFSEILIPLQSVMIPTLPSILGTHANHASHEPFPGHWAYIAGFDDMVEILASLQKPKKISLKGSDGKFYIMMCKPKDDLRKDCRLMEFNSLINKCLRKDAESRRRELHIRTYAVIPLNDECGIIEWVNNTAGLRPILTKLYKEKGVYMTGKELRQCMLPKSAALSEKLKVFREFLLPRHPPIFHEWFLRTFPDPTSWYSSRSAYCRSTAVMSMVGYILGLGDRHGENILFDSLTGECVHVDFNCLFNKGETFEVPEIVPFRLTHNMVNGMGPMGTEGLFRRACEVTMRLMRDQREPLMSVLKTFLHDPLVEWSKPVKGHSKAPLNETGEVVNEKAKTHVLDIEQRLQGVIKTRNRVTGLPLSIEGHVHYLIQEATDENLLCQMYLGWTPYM
T1 sequence (Q8WXE1 whole entry partner): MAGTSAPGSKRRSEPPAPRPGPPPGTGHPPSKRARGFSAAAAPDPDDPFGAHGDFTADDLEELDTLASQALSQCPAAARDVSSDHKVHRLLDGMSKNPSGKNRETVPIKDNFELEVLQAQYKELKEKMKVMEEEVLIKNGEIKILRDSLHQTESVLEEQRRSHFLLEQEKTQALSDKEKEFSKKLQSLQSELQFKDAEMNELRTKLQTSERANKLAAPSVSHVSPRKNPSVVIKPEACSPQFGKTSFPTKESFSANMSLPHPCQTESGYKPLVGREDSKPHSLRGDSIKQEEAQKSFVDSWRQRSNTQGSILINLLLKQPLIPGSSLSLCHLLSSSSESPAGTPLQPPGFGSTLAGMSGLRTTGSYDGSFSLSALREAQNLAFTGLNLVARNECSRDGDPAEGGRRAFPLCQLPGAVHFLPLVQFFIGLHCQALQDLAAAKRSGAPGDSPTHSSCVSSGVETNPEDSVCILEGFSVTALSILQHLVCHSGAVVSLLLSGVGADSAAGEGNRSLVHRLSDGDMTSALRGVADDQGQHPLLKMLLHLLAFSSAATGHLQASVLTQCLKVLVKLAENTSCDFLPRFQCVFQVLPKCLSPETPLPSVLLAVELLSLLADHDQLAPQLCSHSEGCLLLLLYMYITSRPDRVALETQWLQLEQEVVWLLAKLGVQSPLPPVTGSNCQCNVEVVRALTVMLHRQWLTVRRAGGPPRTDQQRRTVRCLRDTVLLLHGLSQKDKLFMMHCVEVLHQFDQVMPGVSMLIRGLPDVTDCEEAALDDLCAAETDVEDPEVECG
Description: Assay b): ATR Cellular Potency
ATR is a PI 3-kinase-related kinase which phosphorylates multiple substrates on serine or threonine residues in response to DNA damage during or replication blocks. Chk1, a downstream protein kinase of ATR, plays a key role in DNA damage checkpoint control. Activation of Chk1 involves phosphorylation of Ser317 and Ser345 (the latter regarded as the preferential target for phosphorylation/activation by ATR).
The following morning compound of Formula (I) in 100% DMSO were added to assay plates by acoustic dispensing. After 1 h incubation at 37° C. and 5% CO2. 40 nl of 3 mM 4NQO in 100% DMSO was added to all wells by acoustic dispensing, except minimum control wells which were left untreated with 4NQO to generate a null response control. Plates were returned to the incubator for a further 1 h. […] Then 20 μl of 0.1% Triton X100 in PBS was added and incubated for 10 minutes at r.t., to permeabalise cells. Then the plates were washed once with 50 μl/well PBS, using a Biotek EL405 plate washer.
After 2 h incubation at r.t., the plates were washed three times with 50 μl/well PBS, using a Biotek EL405 plate washer, and plates were then sealed with black plate seals until read. Plates were read using an ArrayScan VTI instrument, using an XF53 filter with 10× objective.

PI3K-α, sequence (P42336 whole entry): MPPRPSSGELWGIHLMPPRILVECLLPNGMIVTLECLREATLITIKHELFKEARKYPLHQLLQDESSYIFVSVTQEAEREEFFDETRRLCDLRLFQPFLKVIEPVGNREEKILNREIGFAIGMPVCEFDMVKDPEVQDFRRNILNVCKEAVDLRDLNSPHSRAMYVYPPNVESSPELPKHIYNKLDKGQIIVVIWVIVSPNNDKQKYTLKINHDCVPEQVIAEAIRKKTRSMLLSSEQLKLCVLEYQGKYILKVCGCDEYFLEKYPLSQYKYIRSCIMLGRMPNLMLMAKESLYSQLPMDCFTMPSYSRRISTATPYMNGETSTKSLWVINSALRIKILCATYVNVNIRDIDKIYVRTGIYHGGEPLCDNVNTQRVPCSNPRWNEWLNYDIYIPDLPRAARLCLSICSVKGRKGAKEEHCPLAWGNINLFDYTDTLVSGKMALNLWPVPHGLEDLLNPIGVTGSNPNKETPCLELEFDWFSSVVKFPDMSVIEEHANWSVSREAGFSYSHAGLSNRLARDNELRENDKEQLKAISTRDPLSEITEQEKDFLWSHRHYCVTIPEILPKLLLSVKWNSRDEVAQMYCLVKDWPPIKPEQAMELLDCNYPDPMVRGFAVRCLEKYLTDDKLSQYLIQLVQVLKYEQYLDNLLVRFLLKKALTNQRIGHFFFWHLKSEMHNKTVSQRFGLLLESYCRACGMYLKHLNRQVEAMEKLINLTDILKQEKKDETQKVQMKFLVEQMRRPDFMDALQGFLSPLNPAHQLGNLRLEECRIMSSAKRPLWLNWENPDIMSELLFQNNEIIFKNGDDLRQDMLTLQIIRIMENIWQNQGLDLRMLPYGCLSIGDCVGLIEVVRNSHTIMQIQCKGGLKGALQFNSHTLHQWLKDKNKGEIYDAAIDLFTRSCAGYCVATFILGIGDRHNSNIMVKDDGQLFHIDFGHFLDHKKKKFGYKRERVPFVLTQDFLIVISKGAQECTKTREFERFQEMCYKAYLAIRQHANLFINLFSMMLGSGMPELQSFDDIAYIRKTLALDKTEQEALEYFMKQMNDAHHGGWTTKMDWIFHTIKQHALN

CC(C)n1c(=O)n(C)c2cnc3cc(F)c(-c4ccc(OCCCN5CCCCC5)nc4)cc3c21 [Example 2, 7-Fluoro-1-isopropyl-3-methyl-8-[6-[3-(1-piperidyl)propoxy]-3-pyridyl]imidazo[4,5-c]quinolin-2-one]
IC50 (PI3K-α): > 12 µM
IC50 (ATR kinase): > 30 µM

CC(C)n1c(=O)n(C)c2cnc3cc(F)c(-c4ccc(OCCCN5CCCC5)nc4)cc3c21 [Example 3, 7-Fluoro-1-isopropyl-3-methyl-8-[6-(3-pyrrolidin-1-ylpropoxy)-3-pyridyl]imidazo[4,5-c]quinolin-2-one]
IC50 (PI3K-α): 11.4 µM
IC50 (ATR kinase): > 30 µM

CC(C)n1c(=O)n(C)c2cnc3cc(F)c(-c4ccc(OCCCN5CCC5)nc4)cc3c21 [Example 4, 8-[6-[3-(azetidin-1-yl)propoxy]-3-pyridyl]-7-fluoro-1-isopropyl-3-methyl-imidazo[4,5-c]quinolin-2-one]
IC50 (PI3K-α): 4.52 µM
IC50 (ATR kinase): > 30 µM

CC(C)n1c(=O)n(C)c2cnc3ccc(-c4ccc(OCCCN(C)C)nc4)cc3c21 [Example 6, 8-[6-[3-(dimethylamino)propoxy]-3-pyridyl]-1-isopropyl-3-methyl-imidazo[4,5-c]quinolin-2-one]
IC50 (PI3K-α): 0.184 µM
IC50 (ATR kinase): > 20.7 µM

CC(C)n1c(=O)n(C)c2cnc3ccc(-c4ccc(OCCCN5CCCC5)nc4)cc3c21 [Example 7, 1-isopropyl-3-methyl-8-[6-(3-pyrrolidin-1-ylpropoxy)-3-pyridyl]imidazo[4,5-c]quinolin-2-one]
IC50 (PI3K-α): 0.222 µM
IC50 (ATR kinase): > 30 µM

CC(C)n1c(=O)n(C)c2cnc3ccc(-c4ccc(OCCCN5CCC5)nc4)cc3c21 [Example 8, 8-[6-[3-(Azetidin-1-yl)propoxy]-3-pyridyl]-1-isopropyl-3-methyl-imidazo[4,5-c]quinolin-2-one]
IC50 (PI3K-α): 0.661 µM

CC(C)n1c(=O)n(C)c2cnc3ccc(-c4ccc(OCCCN5CCCCC5)nc4F)cc3c21 [Example 9, 8-[2-Fluoro-6-[3-(1-piperidyl)propoxy]-3-pyridyl]-1-isopropyl-3-methyl-imidazo[4,5-c]quinolin-2-one]
IC50 (PI3K-α): 5.75 µM
IC50 (ATR kinase): > 30 µM

CC(C)n1c(=O)n(C)c2cnc3ccc(-c4ccc(OCCCN(C)C)nc4F)cc3c21 [Example 10, 8-[6-[3-(dimethylamino)propoxy]-2-fluoro-3-pyridyl]-1-isopropyl-3-methyl-imidazo[4,5-c]quinolin-2-one]
IC50 (PI3K-α): 6.18 µM
IC50 (ATR kinase): > 30 µM

CC(C)n1c(=O)n(C)c2cnc3ccc(-c4ccc(OCCCN5CCCC5)nc4F)cc3c21 [Example 12, 8-[2-fluoro-6-(3-pyrrolidin-1-ylpropoxy)-3-pyridyl]-1-isopropyl-3-methyl-imidazo[4,5-c]quinolin-2-one]
IC50 (PI3K-α): 2.89 µM
IC50 (ATR kinase): > 30 µM

CC(C)n1c(=O)n(C)c2cnc3cc(F)c(-c4ccc(OCCCN5CCCC5)nc4F)cc3c21 [Example 13, 7-fluoro-8-[2-fluoro-6-(3-pyrrolidin-1-ylpropoxy)-3-pyridyl]-1-isopropyl-3-methyl-imidazo[4,5-c]quinolin-2-one]
IC50 (PI3K-α): 22.9 µM
IC50 (ATR kinase): > 30 µM

CC(C)n1c(=O)n(C)c2cnc3cc(F)c(-c4ccc(OCCCN5CCCCC5)nc4F)cc3c21 [Example 14, 7-fluoro-8-[2-fluoro-6-[3-(1-piperidyl)propoxy]-3-pyridyl]-1-isopropyl-3-methyl-imidazo[4,5-c]quinolin-2-one]
IC50 (PI3K-α): > 30 µM
IC50 (ATR kinase): > 30 µM

CC(C)n1c(=O)n(C)c2cnc3cc(F)c(-c4ccc(OCCCN5CCC5)nc4F)cc3c21 [Example 16, 8-[6-[3-(azetidin-1-yl)propoxy]-2-fluoro-3-pyridyl]-7-fluoro-1-isopropyl-3-methyl-imidazo[4,5-c]quinolin-2-one]
IC50 (PI3K-α): 9.08 µM
IC50 (ATR kinase): > 30 µM

CC(C)n1c(=O)[nH]c2cnc3cc(F)c(-c4ccc(OCCCN5CCCCC5)nc4)cc3c21 [Example 18, 7-Fluoro-1-isopropyl-8-[6-[3-(1-piperidyl)propoxy]-3-pyridyl]-3H-imidazo[4,5-c]quinolin-2-one]
IC50 (PI3K-α): > 30 µM
IC50 (ATR kinase): > 30 µM

CC(C)n1c(=O)n(C)c2cnc3cc(F)c(-c4ccc(OCCC[N+]5([O-])CCCCC5)nc4)cc3c21 [Metabolite A, 7-Fluoro-1-isopropyl-3-methyl-8-[6-[3-(1-oxidopiperidin-1-ium-1-yl)propoxy]-3-pyridyl]imidazo[4,5-c]quinolin-2-one]
IC50 (PI3K-α): 27.8 µM
IC50 (ATR kinase): 9.41 µM
